Measurements taken from US9448170B2 (priority 2003, dated 2016).
Several values for one entry are separate records, joined by “and”; a condition that tells them apart may be missing. Identical values can stand only once.

Experiments:
Selenastrum capricomutum = assay: Delayed fluorescence Curve / VCurve values with green algae photosynthetic sample; type: cell-based; settings: simazine 25, 50, 100 ppb, dichlorophenol 1, 5, 10 ppm, 0.1 to 50 seconds after excitation; for Curve values variation with an increase in concentration: FIG. 37; for VCurve values variation with an increase in concentration: FIG. 38
Protocol: Meanwhile, if characteristic points are not present in a delayed fluorescence decay curve, the Curve values, determined for the entirety or a predetermined range of the decay curve, may be used as comparison values for carrying out the assay. Here, the Curve value at each measurement point n in a temporal variation of the light amount of delayed fluorescence is determined by: (amount of light emitted from the test measurement solution at measurement point n)−(amount of light emitted from the standard measurement solution at measurement point n).
In such a case, it is effective to use VCurve values, each being standardized by being determined as a ratio of a Curve value, which is a value obtained by determining a difference of the temporal variations of the light amount of delayed fluorescence acquired for the test measurement solution and the standard measurement solution, with respect to a light amount of delayed fluorescence acquired for the test measurement solution or the standard measurement solution (preferably, a light amount of delayed fluorescence acquired for the standard measurement solution), as the comparison values. The evaluation of variations within different time ranges is thereby facilitated. Here, in a temporal variation of the light amount of delayed fluorescence, the VCurve value at each measurement point n is determined as (Curve value at measurement point n)/(amount of light emitted from the standard measurement solution at measurement point n)×100.
FIG. 36 is a diagram of an example of a method of computing the Curve values when no characteristics points exist in a delayed fluorescence decay curve. Here, a delayed fluorescence decay curve of a standard measurement solution using Selenastrum capricomutum, which is a green algae and has been grown by a general method at a light intensity of 50 μmol/m^2/s under a white fluorescence lamp, as the photosynthetic sample is shown. Preparation of the sample is carried out in the same manner as in the case of Spirulina platensis. […] In such a case, assay using the Curve values is effective because assay that makes note of characteristic points cannot be made.
Specifically, graph (a) of FIG. 37 is a graph of the Curve values computed from the measurement results of test measurement solutions exposed to simazine, which is a herbicide, at concentrations of 25, 50, and 100 ppb and the measurement results of the standard measurement solution for a time range of 0.1 seconds to 50 seconds after excitation. Graph (b) is a graph of the Curve values computed from the measurement results of test measurement solutions exposed to dichlorophenol at concentrations of 1, 5, and 10 ppm and the measurement results of the standard measurement solution for a time range of 0.1 seconds to 50 seconds after excitation. […]

Spirulina platensis = type: cell-based

Row | Compound | Curve values variation with an increase in concentration (Selenastrum capricomutum) | VCurve values variation with an increase in concentration (Selenastrum capricomutum) | Curve value variation as the concentration becomes higher (Spirulina platensis) | variation of the VCP1 value with respect to concentration (Spirulina platensis) | variation of the VCP2 value with respect to concentration (Spirulina platensis) | variation of the VTP2 value with respect to concentration (Spirulina platensis) | VCP1 value (Spirulina platensis) | VCP1 value after the activated carbon adsorption treatment (Spirulina platensis) | VCP2 value (Spirulina platensis) | VTP2 value (Spirulina platensis)
1 | CCNc1nc(Cl)nc(NCC)n1 [simazine] | vary in the positive direction near 0.1 seconds after excitation | vary in the positive direction near 0.1 to 0.3 seconds after excitation |  |  |  |  |  |  |  | 
2 | C[n+]1ccc(-c2cc[n+](C)cc2)cc1 [paraquat] |  |  | varies in the negative direction at around 1 to 4 seconds after excitation | decreases slightly | decrease | decrease |  |  |  | 
3 | CN(C)C(=O)Nc1ccc(Cl)c(Cl)c1 [DCMU, DCMU (diuron)] |  |  | varies in positive direction at around 1 second after excitation and then varies in the negative direction at around 3 to 5 seconds after excitation | increases | decreases | hardly changes | 116.0 and 125.6 and 120.9 | 96.3 | 88.0 and 84.6 | 100.0 and 101.5
4 | CCNc1nc(Cl)nc(NC(C)C)n1 [atrazine] |  |  | varies in the positive direction at around 1 second after excitation and then varies in the negative direction at around 3 to 4 seconds after excitation | increases | decreases | decreases slightly | 106.4 |  | 90.0 | 100.0
5 | [Hg+2] [Hg2+, inorganic mercury] |  |  | varies in the positive direction at around 1 to 2 seconds after excitation | does not change much with an increase in the inorganic mercury concentration at low inorganic mercury concentration, at high inorganic mercury concentration, the VCP1 value increases | decreases | increases |  |  |  | 
6 | dichlorophenol | vary in the negative direction near 0.2 to 10 seconds after excitation | vary in the negative direction widely over the entire range |  |  |  |  |  |  |  | 
